According to US20230330095A1, “PHARMACEUTICAL COMPOSITION FOR ANTI-CANCER COMPRISING NUPR1 ISOFORM A INHIBITOR” (SEOUL NATIONAL UNIVERSITY R&DB FOUNDATION, priority 2022, published 2023):
Blank lines part the entries; values can stand above or below the compound they belong to.

What was measured:
[1] = test system: GBM-37; assay: cholecystokinin (CCK) measurement after treatment; format: cell-based, human; details: GBM-37 compared with GBM-28
Procedure: (§1) In order to confirm the anticancer efficacy of NUPR1 isoform A inhibitors in brain tumors, experiments were performed using brain tumor patient-derived cell lines obtained from primary glioblastoma patients (GBM-28) and secondary gliosarcoma patients (GBM-37).
In addition, after treating GBM-28 and GBM-37 with temozolomide and 3dc, respectively, cholecystokinin (CCK) results were measured.

[2] = test system: NCI-H1299; assay: mouse model intravitreally injected with lung cancer cells, tumor size; format: in vivo; details: NCI-H1299 in Balb/c nude mice, 1 mM 3dc, visually observed after 1, 2, 3 and 4 weeks
Procedure: (§2) In addition, lung cancer cells, A549 and NCI-H1299 was intravitreal injected into 6-week-old male Balb/c nude mice at 3×10^5 cells/2 μl according to a method disclosed in Lee et al. Experimental & Molecular Medicine (2019) 51:43, and then the tumor size of 1 mM 3dc treatment group (experimental group) and the untreated group (control group) was visually observed after 1 week, 2 weeks, 3 weeks and 4 weeks.

[3] = test system: A549; assay: as above; format: in vivo; details: A549 in Balb/c nude mice, 1 mM 3dc, visually observed after 1, 2, 3 and 4 weeks
Procedure: as §2

[4] = test system: A375P; assay: cell viability, skin cancer cells; format: cell-based; details: as treatment concentration of 3dc increased
Source text: (§3) For skin cancer cells, A375P and SK-MEL1, as the treatment concentration of 3dc, a NUPR1 isoform A inhibitor, increased, cell viability decreased, confirming the anticancer efficacy of 3dc (FIG. 29).

[5] = test system: SK-MEL1; assay: cell viability, skin cancer cells; format: cell-based; details: as treatment concentration of 3dc increased
Source text: as §3

[6] = test system: MCF7; assay: cell viability, breast cancer cells; format: cell-based; details: as treatment concentration of 3dc increased
Source text: (§4) For breast cancer cells, BT-20 and MCF7, as the treatment concentration of 3dc, a NUPR1 isoform A inhibitor, increased, cell viability decreased, confirming the anticancer efficacy of 3dc (FIGS. 32, 33, and 34).

[7] = test system: BT-20; assay: cell viability, breast cancer cells; format: cell-based; details: as treatment concentration of 3dc increased
Source text: as §4

[8] = test system: HCT116; assay: cell viability, colon cancer cells; format: cell-based; details: as treatment concentration of 3dc increased
Source text: (§5) For colon cancer cells, HT29 and HCT116, as the treatment concentration of 3dc, a NUPR1 isoform A inhibitor, increased, cell viability decreased, confirming the anticancer efficacy of 3dc (FIG. 22).

[9] = test system: HT29; assay: cell viability, colon cancer cells; format: cell-based; details: as treatment concentration of 3dc increased
Source text: as §5

[10] = test system: NUPR1 isoform A; assay: NUPR1 isoform A mRNA expression level in GBM-28 and GBM-37; format: cell-based, human; details: GBM-28 and GBM-37 cell lines, treated versus untreated
Procedure: as §1

[11] = test system: HCT116; assay: mouse model intravitreally injected with colon cancer cells, tumor size; format: in vivo; details: HCT116 in Balb/c nude mice, 1 mM 3dc, visually observed after 1, 2, 3 and 4 weeks
Procedure: as §2, with “colon” for “lung”, “HT29” for “A549”, “HCT116” for “NCI-H1299”

[12] = test system: HT29; assay: as above; format: in vivo; details: HT29 in Balb/c nude mice, 1 mM 3dc, visually observed after 1, 2, 3 and 4 weeks
Procedure: as §2, with “colon” for “lung”, “HT29” for “A549”, “HCT116” for “NCI-H1299”

[13] = test system: HepG2; assay: cell viability, liver cancer cells; format: cell-based; details: as treatment concentration of 3dc increased
Source text: (§6) For liver cancer cells, HepG2 and Hep3B, as the treatment concentration of 3dc, a NUPR1 isoform A inhibitor, increased, cell viability decreased, confirming the anticancer efficacy of 3dc (FIG. 31).

[14] = test system: Hep3B; assay: cell viability, liver cancer cells; format: cell-based; details: as treatment concentration of 3dc increased
Source text: as §6

[15] = test system: KATOIII; assay: cell viability, gastric cancer cells; format: cell-based; details: as treatment concentration of 3dc increased
Source text: (§7) For gastric cancer cells, KATOIII and NCl-N87, as the treatment concentration of 3dc, a NUPR1 isoform A inhibitor, increased, cell viability decreased, confirming the anticancer efficacy of 3dc (FIG. 35).

[16] = test system: NCl-N87; assay: cell viability, gastric cancer cells; format: cell-based; details: as treatment concentration of 3dc increased
Source text: as §7

[17] = test system: GBM-37; assay: cell viability after 3dc pre-treatment and temozolomide (anticancer adjuvant); format: cell-based, human
Procedure: To confirm whether 3dc, a NUPR1 isoform A inhibitor, may be applied as an anticancer adjuvant, brain tumor cell GBM-37 was treated with temozolomide (TMZ) and 3dc, and cell viability was confirmed.
GBM-37 was pre-treated with 50 nM, 100 nM, and 200 nM of 3dc for 24 hours, and then was treated with 250 μM, 500 μM, 1000 μM, 2000 μM, and 4000 μM of temozolomide, respectively, and cell viability was confirmed.

[18] = test system: GBM-37; assay: cDNA microarray transcriptome analysis; format: cell-based, human
Procedure: In addition, GBM-37 was treated with 100 nM of 3dc, and transcriptome changes were confirmed through cDNA microarray analysis.

[19] = test system: NCI-H1299; assay: cell viability, lung cancer cells; format: cell-based; details: as treatment concentration of 3dc increased
Source text: (§8) For lung cancer cells, A549 and NCI-H1299, as the treatment concentration of 3dc, a NUPR1 isoform A inhibitor, increased, cell viability decreased, confirming the anticancer efficacy of 3dc (FIG. 26).

[20] = test system: A549; assay: cell viability, lung cancer cells; format: cell-based; details: as treatment concentration of 3dc increased
Source text: as §8

[21] = test system: GBM-37; assay: invasion and proliferation assay; format: cell-based, human; details: GBM-37 compared with GBM-28
Procedure: as §1

[22] = target: NUPR1 isoform A (Homo sapiens, UniProt O60356); assay: calorimetric titration of 3dc and NUPR1 isoform A; details: read-out: binding affinity between the NUPR1 isoform A and 3dc
Procedure: Additionally, calorimetric titrations of 3dc and the NUPR1 isoform A were determined.

[23] = test system: NUPR1 isoform A; assay: immunochemical analysis of nuclear transfer of NUPR1 isoform A; format: cell-based, human; details: GBM-37, immunochemical analysis
Procedure: as §1
First, through immunochemical analysis, it was confirmed that when GBM-37 was treated with 3dc, nuclear transfer of the NUPR1 isoform A was inhibited, as shown in FIG. 6.

[24] = test system: SKOV3; assay: cell viability, ovary cancer cells; format: cell-based; details: as treatment concentration of 3dc increased
Source text: (§9) For ovary cancer cells, Caov3 and SKOV3, as the treatment concentration of 3dc, a NUPR1 isoform A inhibitor, increased, cell viability decreased, confirming the anticancer efficacy of 3dc (FIG. 30).

[25] = test system: Caov3; assay: cell viability, ovary cancer cells; format: cell-based; details: as treatment concentration of 3dc increased
Source text: as §9

[26] = test system: GBM-37; assay: wound healing assay; format: cell-based, human; details: GBM-37 compared with GBM-28
Procedure: as §1

[27] = test system: SNU80; assay: cell viability, thyroid cancer cells; format: cell-based; details: as treatment concentration of 3dc increased
Source text: (§10) For thyroid cancer cells, SNU80 and SNU790, as the treatment concentration of 3dc, a NUPR1 isoform A inhibitor, increased, cell viability decreased, confirming the anticancer efficacy of 3dc (FIG. 25).

[28] = test system: SNU790; assay: cell viability, thyroid cancer cells; format: cell-based; details: as treatment concentration of 3dc increased
Source text: as §10

[29] = test system: GBM-37; assay: cell viability with increasing 3dc concentration; format: cell-based, human; details: as treatment concentration of 3dc increased
Procedure: as §1

[30] = test system: GBM-28; assay: cell viability with increasing 3dc concentration; format: cell-based, human; details: as treatment concentration of 3dc increased
Procedure: as §1

[31] = test system: GBM-37; assay: cell proliferation analysis (MTS assay); format: cell-based, human; details: compared to untreated control
Procedure: as §1
(§11) In addition, after treating GBM-28 and GBM-37 with 3dc, cell proliferation analysis (MTS assay) was performed. As a result of treating GBM-28 and GBM-37 with 3dc, respectively, it was confirmed that cell proliferation was inhibited compared to the untreated control group, and compared to the control group overexpressing (OE) NUPR1 isoform A in GBM-28, in the case of i) treating 3dc, ii) transfecting the NUPR1 isoform A with siRNAs of SEQ ID NOs: 5 and 6 (siNUPR1a), and iii) transfecting 3dc-treated NUPR1 isoform A with siRNAs of SEQ ID NOs: 5 and 6, the cell proliferation was all inhibited. In addition, compared to the untreated control GBM-37, in the case of i) transfecting the NUPR1 isoform A with siRNAs of SEQ ID NOs: 5 and 6 and ii) transfecting 3dc-trated NUPR1 isoform A with siRNAs of SEQ ID NOs: 5 and 6, the cell proliferation was all inhibited, confirming that 3dc inhibited the proliferation ability of brain tumor cells expressing the NUPR1 isoform A (FIG. 11).

[32] = test system: GBM-28; assay: cell proliferation analysis (MTS assay); format: cell-based, human
Procedure: as §1, §11

[33] = test system: DU145; assay: cell viability, prostate cancer cells; format: cell-based; details: as treatment concentration of 3dc increased
Source text: (§12) For prostate cancer cells, DU145 and PC3, as the treatment concentration of 3dc, a NUPR1 isoform A inhibitor, increased, cell viability decreased, confirming the anticancer efficacy of 3dc (FIG. 21).

[34] = test system: PC3; assay: cell viability, prostate cancer cells; format: cell-based; details: as treatment concentration of 3dc increased
Source text: as §12

[35] = GBM-37, gene ontology and network analysis
[36] = GBM-28 overexpressing (OE) NUPR1 isoform A, MTS assay, compared to OE control group

Chain of NUPR1 isoform A (Homo sapiens, UniProt O60356) (O60356 1-100 isoform O60356-2): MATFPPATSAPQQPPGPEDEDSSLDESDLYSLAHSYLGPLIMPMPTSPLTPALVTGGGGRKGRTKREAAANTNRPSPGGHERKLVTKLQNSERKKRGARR

- basic molecular functions such as nucleic acid binding and RNA binding [18, 35]: significantly inhibited
- Kd [22]: 89 µM
Compound: FC(F)(F)c1ccc2c(c1)N(CCCCN1CCC(N3CCCC3)CC1)c1ccccc1S2 [3dc, 10-(4-(4-(pyrrolidin-1-yl)piperidin-1-yl)butyl)-2-(trifluoromethyl)-10H-phenothiazine]
- cholecystokinin (CCK) results [1]: better effect
- tumor size compared with control group [2]: smaller and more transparent
- tumor size compared with control group [3]: smaller and more transparent
- cell viability [4]: decreased
- cell viability [5]: decreased
- cell viability [6]: decreased
- cell viability [7]: decreased
- cell viability [8]: decreased
- cell viability [9]: decreased
- mRNA expression level of NUPR1 isoform A [10]: significantly decreased
- tumor size compared with control group [11]: smaller and more transparent
- tumor size compared with control group [12]: smaller and more transparent
- cell viability [13]: decreased
- cell viability [14]: decreased
- cell viability [15]: decreased
- cell viability [16]: decreased
- cell viability compared to the untreated control group ([17]; GBM-37, 2000 μM temozolomide, 3dc at 50 nM, 100 nM and 200 nM): significantly reduced
- cell viability compared to the untreated control group ([17]; GBM-37 pre-treated 24 hours with 50, 100, 200 nM 3dc, then 250-4000 μM temozolomide): significantly reduced
- genes related to essential cell phenomena such as DNA repair, cell migration, and cell cycle ([18]; GBM-37, 100 nM 3dc, cDNA microarray): down-regulated
- genomic aberrations of coding genes: most chromosomal genes ([18]; GBM-37, based on the transcriptome analysis): affected or down-regulated
- basic biological processes such as DNA packaging and protein-DNA complex assembly [18, 35]: significantly inhibited
- basic cellular components such as DNA packaging complexes and nucleosomes [18, 35]: destroyed
- cell viability [19]: decreased
- cell viability [20]: decreased
- invasion inhibitory effect [21]: better
- proliferation inhibitory effect [21]: better
- nuclear transfer of the NUPR1 isoform A [23]: inhibited
- cell viability [24]: decreased
- cell viability [25]: decreased
- inhibitory effect on cell migration [26]: better inhibitory effect
- cell viability [27]: decreased
- cell viability [28]: decreased
- cell viability [29]: decreased
- cell viability [30]: decreased
- cell proliferation ([31]; GBM-37, 3dc treatment combined with siNUPR1a transfection): inhibited
- cell proliferation ([31]; GBM-37, MTS assay): inhibited
- cell proliferation ([32]; GBM-28, MTS assay, compared to untreated control group): inhibited
- cell proliferation ([32]; GBM-28 overexpressing (OE) NUPR1 isoform A, 3dc treatment combined with siNUPR1a transfection, compared to OE control group): inhibited
- cell proliferation [32, 36]: inhibited
- cell viability [33]: decreased
- cell viability [34]: decreased

Compound: siNUPR1a: siRNAs of SEQ ID NOs: 5 and 6 directed against NUPR1 isoform A (chain 1 GCCUAUGCCCACUUCACCUUU; chain 2 AGGUGAAGUGGGCAUAGGCUU; listed as RNA, chemistry not given here)
- cell proliferation ([31]; GBM-37, MTS assay): inhibited
- cell proliferation [32, 36]: inhibited
